Results as given in ChEMBL document CHEMBL1148727, “Discovery of 1,4-dihydroxy-2-naphthoate [corrected] prenyltransferase inhibitors: new drug leads for multidrug-resistant gram-positive pathogens” (2007).
≈ marks a conversion by molar mass, not a printed value.

Tests used:
Assay type in all cases: functional
[1] = tested on: Mycobacterium tuberculosis; assay: Antibacterial activity against isoniazid-resistant Mycobacterium tuberculosis H37Rv after 18 hrs by agar plate dilution method
[2] = tested on: Mycobacterium tuberculosis; assay: Antibacterial activity against rifampicin-resistant Mycobacterium tuberculosis H37Rv after 18 hrs by agar plate dilution method
[3] = tested on: Mycobacterium tuberculosis variant bovis BCG; assay: Antibacterial activity against Mycobacterium bovis BCG Tokyo after 18 hrs by agar plate dilution method

| SMILES | MIC [1] | MIC [2] | MIC [3] |
| --- | --- | --- | --- |
| CO[C@H]1/C=C/O[C@@]2(C)Oc3c(C)c(O)c4c(O)c(c(/C=N/N5CCN(C)CC5)c(O)c4c3C2=O)NC(=O)/C(C)=C\C=C\[C@H](C)[C@H](O)[C@@H](C)[C@@H](O)[C@@H](C)[C@H](OC(C)=O)[C@@H]1C [RIFAMPIN] | 0.2 µg/mL (≈ 0.243 µM) | > 25 µg/mL | 0.1 µg/mL (≈ 0.122 µM) |
| C=CCN(C)CCCCCCCCOc1ccc(C(=O)c2ccc(Cl)cc2)c(O)c1 | 1.5 µg/mL (≈ 3.49 µM) | 1.5 µg/mL (≈ 3.49 µM) | 3.1 µg/mL (≈ 7.21 µM) |
| NNC(=O)c1ccncc1 [ISONIAZID] | > 25 µg/mL | 0.05 µg/mL (≈ 0.365 µM) | 0.1 µg/mL (≈ 0.729 µM) |
